Converted amounts (≈) assume the structure as drawn. The source made the active and inactive calls. The rule behind the calls is not given here.
Experiments:
[1] = test system: Human immunodeficiency virus 1; assay: Antiviral activity against HIV1 3B replication in human H9 cells assessed as inhibition of p24 antigen production after 4 days by ELISA; format: functional, organism-based; conditions: for EC50: Human immunodeficiency virus 1, 3B, H9, 96 h
H9 = assay: Cytotoxicity against human H9 cells by Coulter counting analysis; format: cell-based
[2] = Therapeutic index, ratio of IC50 for human H9 cells to EC50 for HIV1 3B replication in human H9 cells; format: cell-based; conditions: read-out: Ratio IC50/EC50

Structure (SMILES) | Activity [1] | IC50 (H9) [µg/mL] | EC50 [1] [µg/mL] | selectivity ratio [2]
C=C1C[C@@]23C[C@@H]1CC[C@H]2[C@]1(C)CC[C@@H](OC(=O)c2ccc(F)cc2)[C@](C)(COC(C)=O)[C@@H]1C[C@@H]3O | inactive | 57.7 (≈ 119 µM) |  | 
C=C1C[C@@]23C[C@@H]1CC[C@H]2[C@]1(C)CC[C@@H](OC(=O)c2ccc(F)cc2)[C@](C)(COC(C)=O)[C@@H]1C[C@@H]3OC(=O)c1ccc(F)cc1 | inactive | 41.1 (≈ 67.7 µM) |  | 
C=C1C[C@@]23C[C@@H]1CC[C@H]2[C@]1(C)CC[C@@H](OC(=O)c2cccc([N+](=O)[O-])c2)[C@](C)(COC(C)=O)[C@@H]1C[C@@H]3OC(=O)c1cccc([N+](=O)[O-])c1 | inactive | 21.4 (≈ 32.4 µM) |  | 
C=C1C[C@@]23C[C@@H]1CC[C@H]2[C@]1(C)CC[C@@H](OC(=O)c2ccc([N+](=O)[O-])cc2)[C@](C)(COC(C)=O)[C@@H]1C[C@@H]3OC(=O)c1ccc([N+](=O)[O-])cc1 | inactive | > 100 |  | 
C=C1C[C@@]23C[C@@H]1CC[C@H]2[C@]1(C)CC[C@@H](OC(=O)c2ccc(C)cc2)[C@](C)(COC(C)=O)[C@@H]1C[C@@H]3OC(=O)c1ccc(C)cc1 |  | 52.5 (≈ 87.7 µM) | 1.05 (≈ 1.75 µM) | 50.1
CC(=O)OC[C@]1(C)[C@@H]2C[C@H](O)[C@]34C[C@H](CC[C@H]3[C@]2(C)CC[C@H]1O)[C@@]1(CO1)C4 |  | > 100 |  | 
C=C1C[C@@]23C[C@@H]1CC[C@H]2[C@]1(C)CC[C@@H](OC(=O)c2ccc(SC)cc2)[C@](C)(COC(C)=O)[C@@H]1C[C@@H]3O | inactive | 5.3 (≈ 10.3 µM) |  | 
CC(=O)OC[C@]1(C)[C@@H]2C[C@H](O)[C@@]34CC(=O)[C@@H](CC[C@H]3[C@]2(C)CC[C@H]1O)C4 | inactive | > 100 |  | 
C=C1C[C@@]23C[C@@H]1CC[C@H]2[C@]1(C)CC[C@@H](OC(=O)c2ccccc2)[C@](C)(COC(C)=O)[C@@H]1C[C@@H]3O | inactive | 1.8 (≈ 3.86 µM) |  | 
C=C1C[C@@]23C[C@@H]1CC[C@H]2[C@]1(C)CC[C@@H](OC(=O)c2ccc(Cl)cc2)[C@](C)(COC(C)=O)[C@@H]1C[C@@H]3OC(=O)c1ccc(Cl)cc1 | inactive | 60.1 (≈ 94 µM) |  | 
C=C1C[C@@]23C[C@@H]1CC[C@H]2[C@]1(C)CC[C@@H](OC(=O)c2ccccc2OC)[C@](C)(COC(C)=O)[C@@H]1C[C@@H]3O | inactive | 5.4 (≈ 10.9 µM) |  | 
C=C1C[C@@]23C[C@@H]1CC[C@H]2[C@]1(C)CC[C@@H](OC(=O)CC)[C@](C)(COC(C)=O)[C@@H]1C[C@@H]3OC(=O)CC |  | 16 (≈ 33.7 µM) | 2.63 (≈ 5.54 µM) | 6.1
C=C1C[C@@]23C[C@@H]1CC[C@H]2[C@]1(C)CC[C@@H](O)[C@](C)(COC(C)=O)[C@@H]1C[C@@H]3O [LINEAROL] | inactive | 56.5 (≈ 156 µM) |  | 
C=C1C[C@@]23C[C@@H]1CC[C@H]2[C@]1(C)CC[C@@H](OC(=O)c2ccc(OC)cc2)[C@](C)(COC(C)=O)[C@@H]1C[C@@H]3O | inactive | 2 (≈ 4.03 µM) |  | 
C=C1C[C@@]23C[C@@H]1CC[C@H]2[C@]1(C)CC[C@@H](OC(=O)c2ccc(OC)cc2)[C@](C)(COC(C)=O)[C@@H]1C[C@@H]3OC(=O)c1ccc(OC)cc1 |  | 1.9 (≈ 3.01 µM) | < 0.1 | > 19.2
CC(=O)OC[C@]1(C)[C@@H]2C[C@H](OC(C)=O)[C@]34C[C@H](CC[C@H]3[C@]2(C)CC[C@H]1OC(C)=O)[C@@]1(CO1)C4 |  | 20.6 (≈ 44.5 µM) | 0.13 (≈ 0.281 µM) | 163
C=C1C[C@@]23C[C@@H]1CC[C@H]2[C@]1(C)CC[C@@H](OC(=O)c2ccco2)[C@](C)(COC(C)=O)[C@@H]1C[C@@H]3OC(=O)c1ccco1 |  | 10.8 (≈ 19.6 µM) | 3.11 (≈ 5.65 µM) | 3.49
C=C1C[C@@]23C[C@@H]1CC[C@H]2[C@]1(C)CC[C@@H](OC(=O)c2ccccc2)[C@](C)(COC(C)=O)[C@@H]1C[C@@H]3OC(=O)c1ccccc1 | inactive | 2.2 (≈ 3.85 µM) |  | 
C=C1C[C@@]23C[C@@H]1CC[C@H]2[C@]1(C)CC[C@@H](OC(=O)c2ccc(SC)cc2)[C@](C)(COC(C)=O)[C@@H]1C[C@@H]3OC(=O)c1ccc(SC)cc1 | inactive | 59.8 (≈ 90.2 µM) |  | 
C=C1C[C@@]23C[C@@H]1CC[C@H]2[C@]1(C)CC[C@@H](OC(=O)c2ccc4c(c2)OCO4)[C@](C)(COC(C)=O)[C@@H]1C[C@@H]3O | inactive | 5.3 (≈ 10.4 µM) |  | 
C=C1C[C@@]23C[C@@H]1CC[C@H]2[C@]1(C)CC[C@@H](OC(=O)c2ccc(C#N)cc2)[C@](C)(COC(C)=O)[C@@H]1C[C@@H]3OC(=O)c1ccc(C#N)cc1 | inactive | > 100 |  | 
C=C1C[C@@]23C[C@@H]1CC[C@H]2[C@]1(C)CC[C@@H](OC(=O)c2cnccn2)[C@](C)(COC(C)=O)[C@@H]1C[C@@H]3OC(=O)c1cnccn1 | inactive | 5.6 (≈ 9.74 µM) |  | 
C=C1C[C@@]23C[C@@H]1CC[C@H]2[C@]1(C)CC[C@@H](OC(=O)CC)[C@](C)(COC(C)=O)[C@@H]1C[C@@H]3O | inactive | 22.2 (≈ 53 µM) |  | 
C=C1C[C@@]23C[C@@H]1CC[C@H]2[C@]1(C)CC[C@@H](OC(=O)c2ccc(Cl)cc2)[C@](C)(COC(C)=O)[C@@H]1C[C@@H]3O | inactive | 54 (≈ 108 µM) |  | 
C=C1C[C@@]23C[C@@H]1CC[C@H]2[C@]1(C)CC[C@@H](OC(=O)c2ccccc2OC)[C@](C)(COC(C)=O)[C@@H]1C[C@@H]3OC(=O)c1ccccc1OC | inactive | 6 (≈ 9.51 µM) |  | 
CC(=O)O[C@@H]1CC[C@]2(C)[C@@H](C[C@H](O)[C@]34C[C@H](CC[C@@H]23)[C@@]2(CO2)C4)[C@@]1(C)CO | inactive | > 100 |  | 
C=C1C[C@@]23C[C@@H]1CC[C@H]2[C@]1(C)CC[C@@H](OC(=O)c2ccc4c(c2)OCO4)[C@](C)(COC(C)=O)[C@@H]1C[C@@H]3OC(=O)c1ccc2c(c1)OCO2 |  | 50.6 (≈ 76.8 µM) | 0.27 (≈ 0.41 µM) | 184
